Consider 1 compound from patent publication US5283245A, “Heterocyclic thiazole derivatives and pharmaceutical compositions comprising said derivatives” (Imperial Chemical Industries PLC, priority 1989, dated 1994).

SMILES strings stand for the structures. A value given as a limit tells only on which side of the number the result lay.

In one test the target is T1, cyclooxygenase (Homo sapiens, UniProt P23219).
T1 construct: incubating a test compound with heparinised human blood; endogenous in cells; host or cells: heparinised whole human blood (platelets, by own knowledge)
Put plainly: heparinised human blood challenged with calcium ionophore A23187, TxB2 radioimmunoassay (test b). The format is cell-based. The note with it: A23187 challenge. How it is done:
(§1) b) An in vitro assay system involving incubating a test compound with heparinised human blood, prior to challenge with the calcium ionophore A23187 and then indirectly measuring the inhibitory effects on 5-LO by assaying the amount of LTB4 using the specific radioimmunoassay described by Carey and Forder (F. Carey and R. A. Forder, Brit. J. Pharmacol. 1985, 84, 34P) which involves the use of a protein-LTB4 conjugate produced using the procedure of Young et alia (Prostaglandins, 1983, 26(4),605-613). The effects of a test compound on the enzyme cyclooxygenase (which is involved in the alternative metabolic pathway for arachidonic acid and gives rise to prostaglandins, thromboxanes and related metabolites) may be measured at the same time using the specific radioimmunoassay for thromboxane B2 (TxB2) described by Carey and Forder (see above). This test provides an indication of the effects of a test compound against 5-LO and also cyclooxygenase in the presence of blood cells and proteins. It permits the selectivity of the inhibitory effect on 5-LO or cyclooxygenase to be assessed.

In test [1] the target is T2, 5-LO (Homo sapiens, UniProt P09917).
T2 construct: incubating a test compound with heparinised human blood; endogenous in cells; host or cells: heparinised whole human blood (leukocytes, by own knowledge)
T2 sequence (P09917 1-674): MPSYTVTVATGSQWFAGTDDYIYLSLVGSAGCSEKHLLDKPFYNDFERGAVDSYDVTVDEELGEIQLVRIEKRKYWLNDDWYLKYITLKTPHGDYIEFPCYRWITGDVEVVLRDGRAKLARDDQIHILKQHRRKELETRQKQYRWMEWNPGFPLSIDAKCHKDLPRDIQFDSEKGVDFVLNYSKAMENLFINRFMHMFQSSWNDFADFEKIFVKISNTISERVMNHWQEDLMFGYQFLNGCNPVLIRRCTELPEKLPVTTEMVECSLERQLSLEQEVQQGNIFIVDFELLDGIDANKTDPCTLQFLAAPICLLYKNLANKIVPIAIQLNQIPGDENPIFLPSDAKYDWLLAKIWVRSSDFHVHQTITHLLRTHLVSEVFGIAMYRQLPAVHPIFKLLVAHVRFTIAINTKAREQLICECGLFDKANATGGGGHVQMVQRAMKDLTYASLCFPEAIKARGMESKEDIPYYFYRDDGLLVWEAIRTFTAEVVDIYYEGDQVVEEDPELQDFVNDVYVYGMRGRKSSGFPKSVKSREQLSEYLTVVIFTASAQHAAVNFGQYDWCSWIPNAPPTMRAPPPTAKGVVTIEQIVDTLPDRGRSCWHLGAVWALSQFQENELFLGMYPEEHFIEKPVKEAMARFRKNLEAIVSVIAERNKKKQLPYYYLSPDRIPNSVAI
Put plainly: heparinised human blood challenged with calcium ionophore A23187, LTB4 radioimmunoassay (test b). The format is cell-based. Particulars: A23187 challenge. As for the experimental part: as §1

The target of test [2] is T3, 5-LO (Rattus norvegicus, UniProt P12527).
T3 construct: blood collection, heparinisation, challenge with A23187 and radioimmunoassay of LTB4 and TxB2; endogenous in cells
T3 sequence (P12527 1-673): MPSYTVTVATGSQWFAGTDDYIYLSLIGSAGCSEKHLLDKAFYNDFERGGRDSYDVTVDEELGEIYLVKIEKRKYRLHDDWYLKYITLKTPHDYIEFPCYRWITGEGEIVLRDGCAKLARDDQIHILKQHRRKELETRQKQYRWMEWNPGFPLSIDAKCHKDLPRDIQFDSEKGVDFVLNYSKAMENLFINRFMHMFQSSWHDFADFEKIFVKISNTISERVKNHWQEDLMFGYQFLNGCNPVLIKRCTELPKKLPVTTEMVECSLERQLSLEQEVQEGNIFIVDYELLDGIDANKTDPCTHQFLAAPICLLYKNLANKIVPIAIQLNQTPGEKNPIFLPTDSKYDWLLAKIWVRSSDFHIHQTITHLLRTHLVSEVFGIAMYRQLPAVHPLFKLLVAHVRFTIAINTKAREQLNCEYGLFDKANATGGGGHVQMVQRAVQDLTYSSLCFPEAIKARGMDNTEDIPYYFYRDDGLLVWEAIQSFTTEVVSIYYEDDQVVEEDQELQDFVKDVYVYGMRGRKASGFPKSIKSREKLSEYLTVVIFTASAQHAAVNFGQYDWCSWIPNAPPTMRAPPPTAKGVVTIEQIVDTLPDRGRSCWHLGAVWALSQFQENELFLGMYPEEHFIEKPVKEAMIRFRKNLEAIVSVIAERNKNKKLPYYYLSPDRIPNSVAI
Put plainly: ex vivo assay: administration of compound, blood collection, A23187 challenge, LTB4 radioimmunoassay (test c). The format is in vivo. Particulars: oral administration.

T1 sequence (P23219 24-599): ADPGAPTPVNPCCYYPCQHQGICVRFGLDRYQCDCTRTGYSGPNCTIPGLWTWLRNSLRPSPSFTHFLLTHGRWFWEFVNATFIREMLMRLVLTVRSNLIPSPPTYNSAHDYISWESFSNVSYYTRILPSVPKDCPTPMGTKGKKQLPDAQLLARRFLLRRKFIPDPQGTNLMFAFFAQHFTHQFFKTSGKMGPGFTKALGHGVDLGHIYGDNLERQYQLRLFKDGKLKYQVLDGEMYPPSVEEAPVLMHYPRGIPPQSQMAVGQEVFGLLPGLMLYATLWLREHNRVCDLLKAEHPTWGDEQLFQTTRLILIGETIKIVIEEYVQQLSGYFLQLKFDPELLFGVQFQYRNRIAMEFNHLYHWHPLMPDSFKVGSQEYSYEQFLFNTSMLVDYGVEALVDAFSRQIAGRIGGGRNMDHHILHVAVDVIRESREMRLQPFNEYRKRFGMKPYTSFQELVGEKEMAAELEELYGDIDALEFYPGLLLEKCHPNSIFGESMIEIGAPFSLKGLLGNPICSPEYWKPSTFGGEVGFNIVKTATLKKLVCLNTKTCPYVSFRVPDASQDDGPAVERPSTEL

`CCC(OC)(c1cccc(OCC#Cc2ccccn2)c1)c1nccs1` (stereo not drawn) [2-[1-[3-(3-(2-pyridyl)prop-2-yn-1-yloxy)phenyl]-1-methoxypropyl]thiazole]: the figures for the IC50 on cyclooxygenase and on 5-LO [1] were greater than 40000 nM and 700 nM, respectively. This compound returned a 50% effective dose (ED50) on 5-LO [2] of 50 mg/kg.

For orientation: IC50 means the concentration that inhibits the measured activity by half. As a reminder, the ED50 is the dose at which the effect has come halfway, by size or by number of responders. Read a low ED50 as an effect at a small dose.
